In patent US8895571B2, “Isoindolinone and pyrrolopyridinone derivatives as Akt inhibitors” (Incyte Corporation, priority 2011, dated 2014) one finds IC50 data, which are given here for 18 molecules.

Common to all, as to type: biochemical
In experiment [1] the target is T1, Full length Akt3 (Homo sapiens, UniProt Q9Y243).
T1 construct: Full length Akt1 (cat #P2999), Akt2 (cat #PV3184), Akt3 (cat #PV3185); purchased PerkinElmer PV3185
Put plainly: In vitro Akt kinase enzymatic assay (HTRF), Akt3. The settings on record: 0.6 nM Akt3, substrate solution with 5 mM ATP, 25° C. 1 hr. The method, then:
(§1) Compounds herein were tested for inhibitory activity of Akt targets according to the following in vitro assay. Full length Akt1 (cat #P2999), Akt2 (cat #PV3184), Akt3 (cat #PV3185), peptide substrate, Ulight-Crosstide (cat #TRF0106-M), Ultra-Europium anti-phospho-Crosstide (cat #TRF-0202-M), and 10×LANCE detection buffer (cat #CR97-100) were purchased from PerkinElmer. In general, assay buffer conditions were chosen based on obtaining optimal enzymatic and linear activities. The assay buffer contains 50 mM HEPES, 10 mM MgCl2, 5 mM DTT, 0.005% Tween20 at pH 7.8. Compound stock (0.001 mM) was prepared in DMSO. The compound plate was prepared by 3-fold and 11-point serial dilutions. 0.5 μL of the compound in DMSO was transferred from the compound plate to the assay plate. Enzyme solution (0.4 nM of Akt1, 0.6 nM of Akt2 or 0.6 nM of Akt3) was prepared in the assay buffer. Note that the enzyme concentration given is based on the given stock concentration reported by the vendor. 0.1 μM substrate solution was prepared in the assay buffer with addition of 5 mM ATP. 10 μL of the enzyme solution was added to the assay plate and then 10 μL of substrate solution was added to the assay plate. The plate was protected from light and the reaction was incubated at 25° C. for 1 hr. The reaction was stopped by adding 10 μL of a solution containing 30 mM EDTA, and 3 nM Ultra Europium anti-phospho Crosstide in 1× detection buffer. The plate was incubated for 15-30 min at room temperature and HTRF (homogenous time resolved fluorescence) was measured on a plate reader. Percentage of inhibition was calculated for each concentration and IC50 value was generated from curve fitting. See Table 8 for data related to compounds of the examples.
(In general: TR-FRET usually uses a lanthanide donor and a delayed reading to cut background.)

In experiment [2] the target is T2, Full length Akt1 (Homo sapiens, UniProt P31749).
T2 construct: Full length Akt1 (cat #P2999); purchased PerkinElmer P2999
Briefly: In vitro Akt kinase enzymatic assay (HTRF), Akt1. The note with it: 0.4 nM Akt1, substrate solution with 5 mM ATP, 25° C. 1 hr. The method, then: as §1

Experiment [3] deals with T3, Full length PKA (Homo sapiens, UniProt P17612).
T3 construct: Full length PKA (cat #P2912); purchased Invitrogen P2912
Put plainly: PKA in vitro enzymatic assay (HTRF). The note with it: 0.035 nM enzyme solution, substrate solution with 5 mM ATP, 25° C. 1 hr. The method, then: Full length PKA (cat #P2912), peptide substrate, fluorescein CREBtide peptide (cat #PV3508), Tb-Crebtide p-S133 Ab (cat #PV3566), and Lanthascreen TR-FRET Dilution Buffer stored (part # PV3574) were purchased from Invitrogen. In general, assay buffer conditions were chosen based on obtaining optimal and linear enzymatic activities. The assay buffer contains 50 mM HEPES, 10 mM MgCl2, 5 mM DTT, 0.005% Tween20 at pH 7.8. Compound stock (0.001 mM) was prepared in DMSO. The compound plate was prepared by 3-fold and 11-point serial dilutions. 0.5 μL of the compound in DMSO was transferred from the compound plate to the assay plate. 0.035 nM enzyme solution was prepared in the assay buffer. Note that the enzyme concentration given is based on the given stock concentration reported by the vendor. 0.1 μM substrate solution was prepared in the assay buffer with addition of 5 mM ATP. 10 μL of the enzyme solution was added to the assay plate and then 10 μL of substrate solution was added to the assay plate. The plate was protected from light and the reaction was incubated at 25° C. for 1 hr. The reaction was stopped by adding 10 μL of a solution containing 30 mM EDTA, and 1.5 nM Tb-Crebtide p-S133 Ab in 1× detection buffer. The plate was incubated for 15-30 min at room temperature and HTRF (homogenous time resolved fluorescence) was measured on a plate reader. Percentage of inhibition was calculated for each concentration and IC50 value was generated from curve fitting. See Table 8 for data related to compounds of the examples.

The target of experiment [4] is T4, Full length Akt2 (Homo sapiens, UniProt P31751).
T4 construct: Full length Akt1 (cat #P2999), Akt2 (cat #PV3184); purchased PerkinElmer PV3184
Briefly: In vitro Akt kinase enzymatic assay (HTRF), Akt2. The settings on record: 0.6 nM Akt2, substrate solution with 5 mM ATP, 25° C. 1 hr. The method, then:
as §1

pIC50: −log10 of the molar value.

T1 sequence (Q9Y243 whole entry): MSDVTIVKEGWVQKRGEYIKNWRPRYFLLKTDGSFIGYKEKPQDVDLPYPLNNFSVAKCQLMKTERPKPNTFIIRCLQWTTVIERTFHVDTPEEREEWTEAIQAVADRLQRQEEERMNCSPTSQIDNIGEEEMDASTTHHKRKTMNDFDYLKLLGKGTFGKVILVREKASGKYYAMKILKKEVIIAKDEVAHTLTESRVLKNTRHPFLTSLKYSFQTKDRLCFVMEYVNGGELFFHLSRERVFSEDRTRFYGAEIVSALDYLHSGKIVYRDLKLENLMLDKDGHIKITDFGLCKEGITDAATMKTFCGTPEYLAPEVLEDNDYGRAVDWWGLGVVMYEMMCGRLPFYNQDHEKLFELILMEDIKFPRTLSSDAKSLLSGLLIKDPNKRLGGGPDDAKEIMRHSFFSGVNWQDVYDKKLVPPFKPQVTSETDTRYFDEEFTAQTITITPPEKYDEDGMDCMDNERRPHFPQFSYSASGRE
T4 sequence (P31751 whole entry): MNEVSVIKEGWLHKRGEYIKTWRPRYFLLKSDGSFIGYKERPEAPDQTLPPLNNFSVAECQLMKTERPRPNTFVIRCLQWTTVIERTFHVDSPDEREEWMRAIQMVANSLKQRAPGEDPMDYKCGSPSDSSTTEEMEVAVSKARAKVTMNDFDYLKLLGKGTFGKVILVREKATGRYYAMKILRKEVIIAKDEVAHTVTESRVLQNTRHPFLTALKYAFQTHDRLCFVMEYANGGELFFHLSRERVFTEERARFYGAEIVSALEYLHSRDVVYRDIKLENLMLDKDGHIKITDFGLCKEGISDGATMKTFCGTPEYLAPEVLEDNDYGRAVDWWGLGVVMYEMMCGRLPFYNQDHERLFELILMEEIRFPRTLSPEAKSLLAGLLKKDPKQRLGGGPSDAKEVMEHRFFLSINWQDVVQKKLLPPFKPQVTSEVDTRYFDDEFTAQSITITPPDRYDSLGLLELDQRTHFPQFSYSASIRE
T2 sequence (P31749 whole entry): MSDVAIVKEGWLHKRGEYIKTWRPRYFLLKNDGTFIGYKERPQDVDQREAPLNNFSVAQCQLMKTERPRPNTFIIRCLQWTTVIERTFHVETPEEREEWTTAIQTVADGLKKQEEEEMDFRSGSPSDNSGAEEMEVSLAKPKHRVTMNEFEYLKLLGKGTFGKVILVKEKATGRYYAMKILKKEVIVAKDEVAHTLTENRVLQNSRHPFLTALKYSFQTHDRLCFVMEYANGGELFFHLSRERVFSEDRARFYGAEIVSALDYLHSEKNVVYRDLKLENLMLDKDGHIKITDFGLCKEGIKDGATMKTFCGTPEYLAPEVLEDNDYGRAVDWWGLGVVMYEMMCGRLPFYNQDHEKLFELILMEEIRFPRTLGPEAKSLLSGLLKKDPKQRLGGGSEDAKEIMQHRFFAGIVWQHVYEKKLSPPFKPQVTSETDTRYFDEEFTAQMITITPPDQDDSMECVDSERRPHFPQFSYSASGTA

The term pIC50 denotes the negative decadic logarithm of the IC50, by convention in mol/L. Low values mean a high IC50, high ones a low IC50. Consider `COc1cc(C[C@@H](CN)N2Cc3cc(-c4c(Cl)cnn4C)ccc3C2=O)ccn1` [Example 64, 2-{(1S)-2-amino-1-[(2-methoxypyridin-4-yl)methyl]ethyl}-5-(4-chloro-1-methyl-1H-pyrazol-5-yl)isoindolin-1-one], for which the negative-log IC50 (pIC50) in experiment [1] was less than 5.30; in experiment [2], 5.30 to 6.30; in experiment [3], less than 5.30; in experiment [4], less than 5.30.
For the molecule `COc1ccc(-c2cnn(C)c2-c2ccc3c(c2)CN([C@H](CN)Cc2cccc(F)c2)C3=O)cn1` [Example 28, 2-[(1S)-2-amino-1-(3-fluorobenzyl)ethyl]-5-[4-(6-methoxypyridin-3-yl)-1-methyl-1H-pyrazol-5-yl]isoindolin-1-one], the pIC50 in experiment [1] is less than 5.30; in experiment [2] it was 5.30 to 6.30; in experiment [3] it was less than 5.30; in experiment [4] it was less than 5.30.
Turning to `Cn1ncc(Cl)c1-c1ccc2c(c1)CN(C(CN)c1cccc(F)c1)C2=O` (stereo not drawn) [Example 123, 2-[2-amino-1-(3-fluorophenyl)ethyl]-5-(4-chloro-1-methyl-1H-pyrazol-5-yl)isoindolin-1-one], the pIC50 is 5.30 to 6.30 in experiment [1], more than 6.30 in experiment [2], 5.30 to 6.30 in experiment [3] and 5.30 to 6.30 in experiment [4].
As for `Cn1ncc(-c2ccsc2)c1-c1ccc2c(c1)CN([C@H](CN)Cc1cccc(F)c1)C2=O` [Example 16, 2-[(1S)-2-amino-1-(3-fluorobenzyl)ethyl]-5-[1-methyl-4-(3-thienyl)-1H-pyrazol-5-yl]isoindolin-1-one], the pIC50 was more than 6.30 in experiment [1], 5.30 to 6.30 in experiment [2], less than 5.30 in experiment [3] and 5.30 to 6.30 in experiment [4].
Regarding `CN(C)CC(c1ccccc1)N1Cc2cc(-c3ccnn3C)ccc2C1=O` (stereo not drawn) [Example 115], the pIC50 is less than 5.30 in experiment [1], 5.30 to 6.30 in experiment [2], less than 5.30 in experiment [3] and less than 5.30 in experiment [4].
Consider `CC(C)NC[C@H](Cc1cccc(F)c1)N1Cc2cc(-c3c(Cl)cnn3C)ccc2C1=O` [Example 32, 5-(4-chloro-1-methyl-1H-pyrazol-5-yl)-2-[(1S)-1-(3-fluorobenzyl)-2-(isopropylamino)ethyl]isoindolin-1-one], for which the pIC50 was 5.30 to 6.30 in experiment [1], 5.30 to 6.30 in experiment [2], less than 5.30 in experiment [3] and 5.30 to 6.30 in experiment [4].
With `CN(C)C[C@H](Cc1cccc(F)c1)N1Cc2cc(-c3c(Cl)cnn3C)ccc2C1=O` [Example 38, 5-(4-chloro-1-methyl-1H-pyrazol-5-yl)-2-[(1S)-2-(dimethylamino)-1-(3-fluorobenzyl)ethyl]isoindolin-1-one], the pIC50 in experiment [1] is less than 5.30; in experiment [2], 5.30 to 6.30; in experiment [3] it was less than 5.30; in experiment [4] it was less than 5.30.
Regarding `Cn1ncc(Cl)c1-c1ccc2c(c1)CN([C@H](CNC1CCCC1)Cc1cccc(F)c1)C2=O` [Example 35, 5-(4-chloro-1-methyl-1H-pyrazol-5-yl)-2-[(1S)-2-(cyclopentylamino)-1-(3-fluorobenzyl)ethyl]isoindolin-1-one], the pIC50 is 5.30 to 6.30 in experiment [1], more than 6.30 in experiment [2], less than 5.30 in experiment [3] and 5.30 to 6.30 in experiment [4].
In the case of `Cn1ncc(-c2cccs2)c1-c1ccc2c(c1)CN([C@H](CN)Cc1cccc(F)c1)C2=O` [Example 15, 2-[(1S)-2-amino-1-(3-fluorobenzyl)ethyl]-5-[1-methyl-4-(2-thienyl)-1H-pyrazol-5-yl]isoindolin-1-one], the pIC50 is more than 6.30 in experiment [1], 5.30 to 6.30 in experiment [2], less than 5.30 in experiment [3] and less than 5.30 in experiment [4].
Take `COc1cccc(C(CN)N2Cc3cc(-c4c(Cl)cnn4C)ccc3C2=O)c1` (stereo not drawn) [Example 125, 2-[2-amino-1-(3-methoxyphenyl)ethyl]-5-(4-chloro-1-methyl-1H-pyrazol-5-yl)isoindolin-1-one]: the pIC50 in experiment [1] was 5.30 to 6.30; in experiment [2], more than 6.30; in experiment [3], less than 5.30; in experiment [4], 5.30 to 6.30.
For the molecule `Cn1ncc(Cl)c1-c1ccc2c(n1)CN([C@H](CN)Cc1cccc(F)c1)C2=O` [Example 109, 6-[(1S)-2-amino-1-(3-fluorobenzyl)ethyl]-2-(4-chloro-1-methyl-1H-pyrazol-5-yl)-6,7-dihydro-5H-pyrrolo[3,4-b]pyridin-5-one], the pIC50 in experiment [1] is 5.30 to 6.30; in experiment [2], more than 6.30; in experiment [3] it was less than 5.30; in experiment [4], 5.30 to 6.30.
As for `Cn1ncc(-c2cncc(F)c2)c1-c1ccc2c(c1)CN([C@H](CN)Cc1cccc(F)c1)C2=O` [Example 26, 2-[(1S)-2-amino-1-(3-fluorobenzyl)ethyl]-5-[4-(5-fluoropyridin-3-yl)-1-methyl-1H-pyrazol-5-yl]isoindolin-1-one], the pIC50 in experiment [1], in experiment [2], in experiment [3] and in experiment [4] was less than 5.30 each time.
As for `Cn1ncc(-c2ccccc2)c1-c1ccc2c(c1)CN([C@H](CN)Cc1cccc(F)c1)C2=O` [Example 14, 2-[(1S)-2-amino-1-(3-fluorobenzyl)ethyl]-5-(4-phenyl-1-methyl-1H-pyrazol-5-yl)isoindolin-1-one], the pIC50 in experiment [1] is more than 6.30; in experiment [2] it was 5.30 to 6.30; in experiment [3] it was less than 5.30; in experiment [4], 5.30 to 6.30.
Take `Cn1ncc(Cl)c1-c1ccc2c(c1)CN(C(CN)c1ccccc1)C2=O` (stereo in doubt) [Example 114, 2-[(1R)-2-amino-1-phenylethyl]-5-(4-chloro-1-methyl-1H-pyrazol-5-yl)isoindolin-1-one]: the pIC50 in experiment [1] was 5.30 to 6.30; in experiment [2] it was more than 6.30; in experiment [3], less than 5.30; in experiment [4] it was 5.30 to 6.30.
For `Cn1ncc(-c2cccnc2F)c1-c1ccc2c(c1)CN([C@H](CN)Cc1cccc(F)c1)C2=O` [Example 24, 2-[(1S)-2-amino-1-(3-fluorobenzyl)ethyl]-5-[4-(2-fluoropyridin-3-yl)-1-methyl-1H-pyrazol-5-yl]isoindolin-1-one], the pIC50 in experiment [1], in experiment [2], in experiment [3] and in experiment [4] was less than 5.30 in each case.
Consider `Cn1ncc(-c2cccc3ccccc23)c1-c1ccc2c(c1)CN([C@H](CN)Cc1cccc(F)c1)C2=O` [Example 22, 2-[(1S)-2-amino-1-(3-fluorobenzyl)ethyl]-5-[1-methyl-4-(1-naphthyl)-1H-pyrazol-5-yl]isoindolin-1-one], for which the pIC50 in experiment [1], in experiment [2], in experiment [3] and in experiment [4] was less than 5.30 throughout.
For `Cn1ncc(-c2ccncc2)c1-c1ccc2c(c1)CN([C@H](CN)Cc1cccc(F)c1)C2=O` [Example 18, 2-[(1S)-2-amino-1-(3-fluorobenzyl)ethyl]-5-(1-methyl-4-pyridin-4-yl-1H-pyrazol-5-yl)isoindolin-1-one], the pIC50 in experiment [1] is 5.30 to 6.30; in experiment [2], less than 5.30; in experiment [3], less than 5.30; in experiment [4] it was less than 5.30.
For the molecule `CC(C)OCc1cnn(C)c1-c1ccc2c(c1)CN([C@@H](CN)c1ccccc1)C2=O` [Example 122, 2-[(1R)-2-amino-1-phenylethyl]-5-[4-(2-propoxymethyl)-1-methyl-1H-pyrazol-5-yl]iso-indolin-1-one], the pIC50 is 5.30 to 6.30 in experiment [1], more than 6.30 in experiment [2], less than 5.30 in experiment [3] and 5.30 to 6.30 in experiment [4].
